# Reference: US20120309821A1, “Use of epigallocatechin-3-gallate for immune regulation” (NATIONAL DEFENSE MEDICAL CENTER, priority 2011, published 2012)
# What was measured:
# Assay type in all cases: in vivo, mouse
# [1] = system: NZB/W F1 lupus-prone mice; assay: Kidney histopathological evaluation (H&E); conditions: 120 mg/kg by gavage daily; week 34; H&E kidney sections; vs disease control mice
# Protocol: (§1) Female NZB/W F1 mice were purchased from the Animal Center of the National Taiwan University (Taipei, Taiwan, ROC) and, at 12 weeks of age, were divided into two groups, one of which was given normal saline and served as the disease control, while the other was given 120 mg/kg body weight of EGCG (Ryss Lab, Inc., CA, USA) (this dose is a slight modification of those used in previous in vivo studies) by gavage daily till sacrificed at 34-weeks-old. 8-Week-old NZB/W F1 female mice (prior to onset of autoantibody production) were used as normal controls. Urine samples were collected in metabolic cages every 2 weeks and urine protein levels were measured, and serum samples were used to measure serum levels of blood urea nitrogen (BUN) and creatinine (Cr) as described previously (Ka, S. M. et al. Decoy receptor 3 ameliorates an autoimmune crescentic glomerulonephritis model in mice. J Am Soc Nephrol 18:2473-2485; 2007). All animal experiments were performed upon the ethical approval of the Institutional Animal Care and Use Committee of the National Defense Medical Center, Taiwan and according to the ethical rules in the NIH Guide for the Care and Use of Laboratory Animals. Formalin-fixed and paraffin-embedded renal sections were prepared for pathologic evaluation.
# [2] = system: glutathione peroxidase (GPx); assay: GPx activity in renal cortex lysates; conditions: 120 mg/kg by gavage daily; week 34; compared with increase in disease control mice
# Protocol: as §1, with “Animals.” for “Animals. Formalin-fixed and paraffin-embedded renal sections were prepared for pathologic evaluation.”
# NF-κB p65 = assay: IHC of NF-κB p65 in kidney; conditions: 120 mg/kg by gavage daily; week 34; increase seen in disease control
# Protocol: as §1, with “Animals.” for “Animals. Formalin-fixed and paraffin-embedded renal sections were prepared for pathologic evaluation.”
# NLRP3 = assay: Western blot of NLRP3 in kidney; conditions: 120 mg/kg by gavage daily; week 34; increase seen in disease control
# Protocol: as §1, with “[…] Antibodies to histone H3 (Cell Signaling) or β-actin (Santa Cruz) were used as internal controls for the nuclear” for “Formalin-fixed”, “cytosolic target proteins, respectively.” for “paraffin-embedded renal sections were prepared for pathologic evaluation.”
# caspase-1 = assay: Western blot of caspase-1 p20 in kidney; conditions: 120 mg/kg by gavage daily, week 34
# Protocol: as §1, with “[…] Antibodies to histone H3 (Cell Signaling) or β-actin (Santa Cruz) were used as internal controls for the nuclear” for “Formalin-fixed”, “cytosolic target proteins, respectively.” for “paraffin-embedded renal sections were prepared for pathologic evaluation.”
# [3] = system: CD19+CD69+ cells (activated B cells); assay: B cell activation in splenocytes by flow cytometry; conditions: 120 mg/kg by gavage daily; week 34; EGCG-treated vs disease mice
# Protocol: as §1, with “Formalin-fixed and paraffin-embedded renal sections were prepared for pathologic evaluation.” left out
substance,measurement,setting,value
Epigallocatechin-3-gallate [EGCG],"severe renal lesions (glomerular proliferation, crescents, interstitial inflammation, fibrosis)",[1],greatly reduced
same,GPx activity in the kidney,[2],even larger increase
same,"NF-κB p65 activity in the kidney (IHC, nuclear location)",NF-κB p65,markedly inhibited
same,levels of NLRP3 protein in kidney tissues,NLRP3,inhibited
same,caspase-1 activation (appearance of the p20 subunit) in kidney,caspase-1,significantly inhibited
same,percentage of CD19+CD69+ cells (activated B cells) in CD19+ splenocytes,[3],no significant difference
